Test results published in patent publication US12565517B2, “Cyclic peptide having CTLA-4 inhibitory activity and use thereof” (GeneFrontier Corporation, priority 2019, dated 2026).
Bridges are numbered along the chain shown (N, C = ends). Where no end group is shown, it is not given here.

Tests used:
CTLA-4 [1] = target: T1, CTLA-4 (Homo sapiens, UniProt P16410); experiment: Evaluation of binding after Affinity Maturation selection by ELISA (S/N ratio, Table 5); conditions: for ELISA MBP-fusion Orencia (absorbance at 450 nm): MBP-fused cyclic peptide, Orencia wells; for ELISA MBP-fusion S/N(SA): ratio of Orencia signal to SA signal, binding = S/N not less than 2
T1 construct: IgG1 Fc (own knowledge: Orencia = abatacept, CTLA4-Ig)
Experimental: The basic operation of ribosome display was performed in the same manner as described above. Detailed experimental conditions for Affinity Maturation are indicated below. 2 μL of Nanolink streptavidin magnetic beads (SoluLink) were used as magnetic beads to immobilize the antigen, and 1 mL of CTLA-4 protein solution (1 μM) was used as a wash solution. The amount of biotinylated CTLA-4 immobilized on the magnetic beads was 10 pmol in the 1st round, 2 pmol in the 2nd round, and 1 pmol in the 3rd round, respectively. The washing period was 2 hours for the 1st round, 19 hours for the 2nd round, and 67 hours for the 3rd round. The number of wash cycle was one time (2 hours) in the 1st round, two times (about every 10 hours) in the […], and six times (about every 10 hours) in the 3rd round. After each round of RT-PCR, Error-Prone PCR was performed in the same manner as described above.
(§1) After each round of Affinity Maturation, the cyclic peptide genes were recovered and subcloned into pET-Mal vector (FIG. 2) in the same manner as described above to perform base sequence analysis. For the 94 single colonies analyzed for sequence, E. coli transformants were inoculated into 100 μL of 2×YT medium containing ampicillin (final concentration 50 μg/mL), incubated at 37° C. for 3-5 hours (OD600=0.5-0.8), then added with IPTG (final concentration 0.5 mM) and incubated at 25° C. overnight. 10 μL of E. coli cultured medium was added with 90 μL of PBS and 40 μL of lysis reagent (20 μL BugBuster Protein Extraction Reagent (Novagen), 20 μL Lysozyme solution 2.5 mg/mL) to lyse E. coli cells for 1 hour at room temperature. The cell lysate was added with 40 μL of 12.5% skim milk solution (TBST) and blocked for 1 hour at room temperature. In parallel, antigen protein was immobilized overnight at 4° C. in 384-well plates at 100 ng/20 μL per well, and each well was washed twice with 100 μL/well of TBST, added with 100 μL/well of 5% skim milk solution (TBST) for blocking for 1 hour at room temperature, and washed twice with 100 μL/well of TBST to obtain antigen-immobilized plates. 20 μL/well of blocking-treated E. coli extract was added to the antigen-immobilized plates and gently stirred at room temperature using a plate mixer. After 1 hour, the plates were washed 5 times with 100 μL/well of TBST, 20 μL/well of anti-FLAG M2-HRP conjugate (1:2000 dilution, Sigma) was added and gently stirred on a plate mixer for 1 hour at room temperature. The plates were washed 5 times with 100 μL/well of TBST, and binding of cyclic peptides to the antigen was detected by 20 μL/well of chromogenic substrate (0.4 mg/mL 3,3′,5,5′-Tetramethyl-benzidine, 0.01% hydrogen peroxide). After 15 minutes of reaction at room temperature, the reaction was stopped with 20 μL/well of 2N HCl, and absorbance at 450 nm was measured using a plate reader (infinite F200: TECAN) (Table 5).
T1 sequence (P16410 with tags, fused parts or gaps limits assumed): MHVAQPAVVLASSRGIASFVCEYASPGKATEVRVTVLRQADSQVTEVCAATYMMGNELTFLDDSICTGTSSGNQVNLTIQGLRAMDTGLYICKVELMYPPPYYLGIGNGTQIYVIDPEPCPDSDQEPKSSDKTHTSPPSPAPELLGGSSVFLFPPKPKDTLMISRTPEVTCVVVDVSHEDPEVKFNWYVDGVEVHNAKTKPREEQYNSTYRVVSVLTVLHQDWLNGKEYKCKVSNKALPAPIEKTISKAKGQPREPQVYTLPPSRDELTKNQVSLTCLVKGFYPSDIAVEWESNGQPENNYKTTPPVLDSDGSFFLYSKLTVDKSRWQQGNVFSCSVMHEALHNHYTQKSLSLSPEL

CTLA-4 [2] = target: T2, CTLA-4 (Homo sapiens, UniProt P16410); experiment: Affinity measurement of CTLA-4 binding clones after Affinity Maturation (EC50 by ELISA, Table 6)
T2 sequence (P16410 36-223): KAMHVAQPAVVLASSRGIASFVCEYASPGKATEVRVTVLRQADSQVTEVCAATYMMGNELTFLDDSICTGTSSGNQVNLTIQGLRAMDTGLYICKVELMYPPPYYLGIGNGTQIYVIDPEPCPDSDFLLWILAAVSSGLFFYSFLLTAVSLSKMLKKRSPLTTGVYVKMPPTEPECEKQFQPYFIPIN
Experimental: For each of the CTLA-4 binding clones obtained by Affinity Maturation, purified N-terminal MBP fusion protein solution (400 μg/mL) was prepared and samples serially 2-fold diluted with PBS were prepared. CTLA-4 was immobilized overnight at 4° C. in 384-well plates at 100 ng/20 μL per well, and each well was washed twice with 100 μL/well of TBST, added with 100 μL/well of 5% skim milk solution (TBST) for blocking for 1 hour at room temperature, and washed twice with 100 μL/well of TBST to obtain antigen-immobilized plates. 20 μL/well of serially-diluted N-terminal MBP fusion protein solution was added to the antigen-immobilized plates and gently stirred at room temperature using a plate mixer. After 1 hour, the plates were washed 5 times with 100 μL/well of TBST, 20 μL/well of anti-FLAG M2-HRP conjugate (1:2000 dilution, Sigma) was added and gently stirred on a plate mixer for 1 hour at room temperature. Further, the plates were washed 5 times with 100 μL/well of TBST, and binding of N-terminal MBP fusion proteins to the antigen was detected by 20 μL/well of chromogenic substrate (0.4 mg/mL 3,3′,5,5′-Tetramethyl-benzidine, 0.01% hydrogen peroxide). After 15 minutes of reaction at room temperature, the reaction was stopped with 20 μL/well of 2N HCl, and absorbance at 450 nm was measured using a plate reader (infinite F200: TECAN). The graph was plotted with the vertical axis as the absorbance of ELISA and the horizontal axis as the concentration of N-terminal MBP fusion protein of the CTLA4-binding clones (FIG. 5), and the EC50 was calculated from the obtained binding curve (Table 6).

[3] = target: T3, binding of CTLA-4 to CD80 (Homo sapiens, UniProt P16410); experiment: CTLA4:B7-1[Biotinylated] Inhibitor Screening Assay Kit (IC50 measurement); format: biochemical
T3 construct: purchased BPS Biosciences
T3 sequence (P16410 37-162 limits assumed): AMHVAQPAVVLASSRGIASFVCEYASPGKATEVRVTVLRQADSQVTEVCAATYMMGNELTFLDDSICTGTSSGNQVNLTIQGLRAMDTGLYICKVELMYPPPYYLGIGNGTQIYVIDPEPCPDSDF
Source text: IC50 can be determined by using, for example, competitive ELISA, surface plasmon resonance (BIAcore (trademark)) analysis or the like. IC50 value for the cyclic peptide of the present invention with respect to its inhibition of binding between human CTLA-4 and human CD80 is preferably measured by CTLA4:B7-1 [Biotinylated] Inhibitor Screening Assay Kit (BPS Bioscience) according to the Example below.
Among the clones obtained in the Affinity Maturation selection experiment, clone #19 ([…]) (SEQ ID NO: 22), which has high affinity to CTLA-4 in EC50 measurement, was measured for its activity to inhibit binding of CTLA-4 to CD80. The measurement of inhibitory activity was performed using the CTLA4:B7-1[Biotinylated] Inhibitor Screening Assay Kit (BPS Biosciences). The experiment was performed according to the standard protocol attached to the kit.
In addition, peptides with glycine added to the N-terminus (Gly-clone #19: […] (SEQ ID NO: 26)/Gly-H12SSI-Ctla4-3-02: […] (SEQ ID NO: 25)) were chemically synthesized for the measurement of inhibitory activity. Inhibitory activity was measured using the CTLA4:B7-1 [Biotinylated] Inhibitor Screening Assay Kit (BPS Biosciences) as described above.

CTLA-4 [4] = target: T2, CTLA-4; experiment: Affinity measurement of synthetic biotinylated peptides by BLItz system (peptide on SA sensor chip); format: binding; conditions: synthetic Biotin-PEG4-Lys peptide immobilized, BLItz
Experimental: Affinity for CTLA-4 was measured using the BLItz system (forte Bio). All operations were performed according to the instruction manual of the BLItz system. The biotinylated peptides were immobilized on the SA sensor chip via streptavidin.

SA = SA (Streptomyces avidinii, UniProt P22629); experiment: ELISA background signal of MBP-fused cyclic peptides on SA wells (Table 5); format: binding; conditions: MBP-fused cyclic peptide
Experimental: as §1
An Error-Prone Library was prepared based on H12SSI-Ctla4-3-02, and Affinity Maturation selection experiments were performed. […]

CTLA-4 [5] = target: T2, CTLA-4; experiment: Alanine scanning of clone #10, binding evaluated by ELISA; conditions: mutants of clone #10
Experimental: After each round of Affinity Maturation, the cyclic peptide genes were recovered and subcloned into pET-Mal vector (FIG. 2) in the same manner as described above to perform base sequence analysis. For the 94 single colonies analyzed for sequence, E. coli transformants were inoculated into 100 μL of 2×YT medium containing ampicillin (final concentration 50 μg/mL), incubated at 37° C. for 3-5 hours (OD600=0.5-0.8), then added with IPTG (final concentration 0.5 mM) and incubated at 25° C. overnight. […] The plates were washed 5 times with 100 μL/well of TBST, and binding of cyclic peptides to the antigen was detected by 20 μL/well of chromogenic substrate (0.4 mg/mL 3,3′,5,5′-Tetramethyl-benzidine, 0.01% hydrogen peroxide). After 15 minutes of reaction at room temperature, the reaction was stopped with 20 μL/well of 2N HCl, and absorbance at 450 nm was measured using a plate reader (infinite F200: TECAN) (Table 5).
Using the CTLA-4 binding clone #10 ([…]) (SEQ ID NO: 27), which had high affinity, as the original clone, a series of oligo DNAs encoding mutants in which any one amino acid residue except cysteine was sequentially replaced with alanine were synthesized and each oligo DNA was subcloned into pET-Mal vector (FIG. 2), and the binding activity of the alanine substitution mutants to CTLA-4 was evaluated by ELISA as described above.

[6] = target: T4, CTLA-4-Fc (Recombinant Human CTLA4-Fc chimera) versus Human Fc (Homo sapiens, UniProt P16410); experiment: Ribosome display pull down assay of enriched clones; format: binding; conditions: CTLA-4 Fc versus Human Fc
T4 construct: purchased R&D systems
Experimental: (§2) CTLA-4 protein (Recombinant Human CTLA4-Fc chimera: R&D systems) was biotinylated according to the standard protocol for EZ-Link NHS-PEO12-Biotin (PIERCE). Biotinylation of CTLA-4 protein was confirmed mobility shift of the band in SDS-PAGE. The concentration of biotinylated CTLA-4 protein was measured by using BCA Protein Assay Kit (PIERCE)
Dynabeads MyOne Streptavidin T1 magnetic beads (100 μL slurry, Invitrogen) pre-blocked overnight with 5% SuperBlock at 4° C. was trapped with MagneSphere Magnetic Separation Stand (Promega) and washed twice with 500 μL of wash buffer solution. 100 pmol of biotinylated antigen protein was added and immobilized on the magnetic beads at 4° C. After 60 min, the magnetic beads were trapped with MagneSphere Magnetic Separation Stand (Promega) and washed 3 times with 500 μL of wash buffer solution. The recovered magnetic beads were added with post-translation reaction solution containing ribosome display complexes (peptide-ribosome-mRNA complexes) and stirred with rotation at 4° C. for 1 hr. A supernatant was discarded by MagneSphere Magnetic Separation Stand (Promega), and the recover magnetic beads were added with 1 mL of wash buffer solution and stirred with rotation at 4° C. for 5 min. […] A part of purified mRNA was reacted with RNA-direct SYBR Green Realtime PCR Master Mix (TOYOBO) and quantified by using Light Cycler 480 (Roche).

[7] = target: T5, CTLA-4 protein (Recombinant Human CTLA4-Fc chimera) (Homo sapiens, UniProt P16410); experiment: Affinity measurement of MBP fusion clone by BLItz system (biotinylated CTLA-4 on SA sensor chip); format: binding
T5 construct: purchased R&D systems
Experimental: as §2
E. coli transformants were inoculated into 200 mL of 2×YT medium containing ampicillin (final concentration 50 μg/mL), incubated at 37° C. for 3-5 hours (OD600=0.5-0.8), and then added with IPTG (final concentration 0.5 mM) and incubated at 25° C. overnight. The grown E. coli cells were collected by centrifugation, resuspended in 60 mL of lysis buffer (20 mM Tris HCl pH 7.5, 500 mM NaCl), and disrupted by a sonicator (Bioruptor UCD-250). The disrupted cell suspension was centrifuged, the supernatant was collected, filtered through a 0.22 μm filter, and subjected to affinity purification by MBPTrap (GE Healthcare). The purified protein solution was subjected to a buffer exchange into PBS by a dialysis membrane. Purity was confirmed by SDS-PAGE and protein concentration was determined using the BCA Protein Assay Kit (PIERCE).
The affinity of the purified CTLA-4 binding clone (H12SSI-Ctla4-3-02) to CTLA-4 was measured using BLItz system (forte Bio). All operations were performed according to the instruction manual of the BLItz system. The biotinylated CTLA-4 protein was immobilized on the SA sensor chip via streptavidin.

T5 sequence (P16410 with tags, fused parts or gaps limits assumed): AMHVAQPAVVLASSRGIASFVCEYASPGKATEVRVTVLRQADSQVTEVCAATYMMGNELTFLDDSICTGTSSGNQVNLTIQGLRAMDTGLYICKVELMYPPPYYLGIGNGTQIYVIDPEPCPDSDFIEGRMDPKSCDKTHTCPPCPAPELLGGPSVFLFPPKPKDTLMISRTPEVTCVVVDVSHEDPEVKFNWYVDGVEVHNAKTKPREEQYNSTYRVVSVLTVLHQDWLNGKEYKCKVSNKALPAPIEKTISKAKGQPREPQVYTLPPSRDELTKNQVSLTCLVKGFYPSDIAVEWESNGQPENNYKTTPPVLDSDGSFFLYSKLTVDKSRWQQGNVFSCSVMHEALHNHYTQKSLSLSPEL
Chain of SA (P22629 25-183): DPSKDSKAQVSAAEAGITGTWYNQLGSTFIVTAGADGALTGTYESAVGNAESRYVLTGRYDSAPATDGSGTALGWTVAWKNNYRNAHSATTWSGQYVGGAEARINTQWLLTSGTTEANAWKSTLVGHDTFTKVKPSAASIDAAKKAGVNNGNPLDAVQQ

Substance	ELISA MBP-fusion Orencia (absorbance at 450 nm) (CTLA-4 [1])	ELISA MBP-fusion S/N(SA) (CTLA-4 [1])	CTLA-4 affinity improved over the original clone (CTLA-4 [2]; EC50 by ELISA, MBP fusion cyclic peptides)	EC50 (CTLA-4 [2]; N-terminal MBP fusion protein of the CTLA-4 binding clone, EC50 calculated from ELISA binding curve)	IC50 ([3]; MBP fusion protein)	IC50 ([3]; synthesized peptide with N-terminal glycine)	ka (CTLA-4 [4])	kd (CTLA-4 [4])	Kd (CTLA-4 [4]; unit inferred)	ELISA MBP-fusion SA (absorbance at 450 nm) (SA)	binding activity of alanine substitution mutant to CTLA-4 (CTLA-4 [5])	binding specificity in ribosome display pull down assay [6]	Kd [7]	ka [7]	kd [7]
CMHPFLPIVSHHFCER [#19]	1.0658	18.0	about 50 fold	0.075 µM	1.36 µM	11.5 µM	208000 M⁻¹ s⁻¹	0.0128 s⁻¹	0.0618 µM	0.0591					
I7A mutant: alanine substitution mutant of clone #10 with isoleucine at position 7 replaced (CLHPFLPAVSHHFCGR; not fully specified (bridges); cysteine pairing not given here; also: MBP fusion)											weak binding activity				
CMHPFLLVVSHHFC (disulfide 1-14 (inferred); not fully specified (N-terminus)) [H12SSI-Ctla4-3-02]	0.2278	4.3								0.0536		bound specifically to CTLA-4	3.88 µM	3180 M⁻¹ s⁻¹	0.0123 s⁻¹
